US7435724B2, “Degradation-resistant mononucleoside phosphate compounds” (Inspire Pharmaceutical, Inc., priority 2002, dated 2008)

System: whole blood platelet aggregation
Assay: Platelet aggregation assay, whole blood (ADP-induced, impedance mode)
Type: cell-based, human (healthy volunteers)
Details: Homo sapiens, read-out: PLATELET DATA IC50 Whole Blood, inhibition of aggregation by maximally effective ADP, whole blood diluted 1:1 with saline
Description: Blood was collected from healthy volunteers into syringes containing ⅙final blood volume of anti-coagulant ACD (65 mM citric acid, 85 mM sodium citrate, 110 mM dextrose) for washed platelet (WP) preparation or into a syringe containing a final concentration of 10 units/mL heparin or 300 μM PPACK for whole blood (WB) assays. The blood collected for whole blood assays was maintained at room temperature and immediately tested as described below. The blood collected for WP) was centrifuged at 180 g for 15 minutes and the supernatant (platelet rich plasma) was removed. […] Platelet aggregation was measured using the optical mode of a ChronoLog aggregometer (Havertown, Pa.). […] A maximally effective concentration of ADP (typically a concentration that produces between 90 and 100 percent of the maximal response) was added to the sample and aggregation was monitored for 8 minutes. […]
The potency of agonists and inhibitors of platelet aggregation was calculated from both, the rate of aggregation and the maximal extent of aggregation obtained for each determination by fitting the data to a four-parameter logistic equation using the GraphPad software package (GraphPad Corp. San Diego, Calif.).

CCNC(=O)Nc1ncnc2c1ncn2[C@@H]1O[C@H](COP(=O)(O)OC)C2O[C@H](/C=C/c3ccccc3)O[C@@H]21 (stereo partly drawn) [Compound 217, 2′,3′-(trans)-O-methylenestyryl-5′-(methylphosphate)-N^6-ethylaminocarbonyl-adenosine]
IC50: 2500 nM
